Results taken from patent US6852673B2, “Herbicidal pyridine compounds” (BASF Aktiengesellschaft, priority 1998, dated 2005).

Columns and labels:
Assay type in all cases: in vivo
[1] = system: Cassia obtusifolia (CASOB); assay: Pre-emergence herbicidal evaluation, sicklepod; conditions: dose 0.4 kg/ha
Description: (§1) The pre-emergence herbicidal activity of the compounds of the present invention is exemplified by the following test in which the seeds of a variety of monocotyledonous and dicotyledonous plants are seperately mixed with potting soil and planted on top of approximately one inch of soil in separate pots. After planting, the pots are sprayed with the selected aqueous acetone solution containing test compound in sufficient quantity to provide the equivalent of about 0.0125 to 0.4 kg per hectare of test compound per pot. The treated pots are then placed on greenhouse benches, watered and cared for in accordance with conventional greenhouse procedures. From 2 to 4 weeks after treatment, the tests are terminated and each pot is examined and rated according to the rating system set forth below.

Solanum nigrum (SOLNI) [2] = assay: Pre-emergence herbicidal evaluation, black nightshade
In short: (§2)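 Pre-emergence; seed/potting-soil mix sown on ~1 inch soil; spray aqueous acetone solution, ~0.0125–0.4 kg/ha equivalent; greenhouse, watered; visual rating at 2–4 wk.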

Lamium purpureum (LAMPU) = assay: Post-emergence herbicidal evaluation, purple deadnettle; conditions: rated 2 to 4 weeks after treatment
Experimental: (§3) [table] [table] […] These acetone solutions are diluted with water and the resulting formulations applied at dosage levels equivalent of about 0.03 to 0.4 kg per hectare of test compound per pot. After spraying the plants are placed on greenhouse benches and are cared for in the usual manner, commensurate with conventional greenhouse practices. From 2 to 4 weeks after treatment, the seedling plants are examined and rated according to the rating system provided above. A rating 0 indicates growth as untreated control, a rating 9 indicates death.

[3] = system: Cassia obtusifolia (CASOB); assay: Post-emergence herbicidal evaluation, sicklepod; conditions: rated 2 to 4 weeks after treatment
Experimental: as §3

weeds = assay: Post-emergence herbicidal evaluation, overall weed control; conditions: in barley at crop selective doses
Experimental: as §3

Stellaria media (STEME) = assay: Post-emergence herbicidal evaluation, chickweed; conditions: rated 2 to 4 weeks after treatment
Experimental: as §3

[4] = system: Digitaria sanguinalis (DIGSA); assay: Post-emergence herbicidal evaluation, large crabgrass; conditions: rated 2 to 4 weeks after treatment
Experimental: as §3

[5] = system: Digitaria sanguinalis (DIGSA); assay: Pre-emergence herbicidal evaluation, large crabgrass
In short: as §2

Zea mays (ZEAMX) = assay: Pre-emergence herbicidal evaluation, maize
Description: as §1

Glycine max (GLXMA) = assay: Pre-emergence herbicidal evaluation, soyabeans
Description: as §1

Solanum nigrum (SOLNI) [6] = assay: Post-emergence herbicidal evaluation, black nightshade; conditions: rated 2 to 4 weeks after treatment
Experimental: as §3

`Cc1cc(OCC(F)(F)C(F)F)nc(Oc2cc(C(F)(F)F)nn2C)c1` [Example 6] was tested, and the CASOB rating [1] was 9 (9 - Complete kill), the SOLNI rating (Solanum nigrum (SOLNI) [2]; dose 0.013 kg/ha) was 4 (4 - Injury) and the SOLNI rating (Solanum nigrum (SOLNI) [2]; dose 0.025 kg/ha) was 4 (4 - Injury). For the same molecule, the SOLNI rating (Solanum nigrum (SOLNI) [2]; dose 0.1 kg/ha) was 8 (8 - Approaching complete kill), the SOLNI rating (Solanum nigrum (SOLNI) [2]; dose 0.4 kg/ha) was 9 (9 - Complete kill) and the LAMPU rating (Lamium purpureum (LAMPU); dose 0.1 kg/ha) was 6 (6 - Herbicidal effect). For the same molecule, the LAMPU rating (Lamium purpureum (LAMPU); dose 0.25 kg/ha) was 4 (4 - Injury), the LAMPU rating (Lamium purpureum (LAMPU); dose 0.4 kg/ha) was 7 (7 - Good herbicidal effect) and the CASOB rating ([3]; dose 0.25 kg/ha) was 4 (4 - Injury). The CASOB rating ([3]; dose 0.4 kg/ha) was 6 (6 - Herbicidal effect), the broad-leaved weed control (weeds) was “effective” and the STEME rating (Stellaria media (STEME); dose 0.1 kg/ha) was 2 (2 - Slight effect). The STEME rating (Stellaria media (STEME); dose 0.25 kg/ha) was 2 (2 - Slight effect), the STEME rating (Stellaria media (STEME); dose 0.4 kg/ha) was 3 (3 - Moderate effect) and the DIGSA rating ([4]; dose 0.1 kg/ha) was 6 (6 - Herbicidal effect). The DIGSA rating ([4]; dose 0.25 kg/ha) was 4 (4 - Injury), the DIGSA rating ([4]; dose 0.4 kg/ha) was 7 (7 - Good herbicidal effect) and the DIGSA rating ([5]; dose 0.013 kg/ha) was 1 (1 - Trace effect). For the same molecule, the DIGSA rating ([5]; dose 0.025 kg/ha) was 2 (2 - Slight effect), the DIGSA rating ([5]; dose 0.1 kg/ha) was 9 (9 - Complete kill) and the DIGSA rating ([5]; dose 0.4 kg/ha) was 9 (9 - Complete kill). The ZEAMX rating (Zea mays (ZEAMX); dose 0.013 kg/ha) was 0 (0 - No effect), the ZEAMX rating (Zea mays (ZEAMX); dose 0.025 kg/ha) was 1 (1 - Trace effect) and the ZEAMX rating (Zea mays (ZEAMX); dose 0.1 kg/ha) was 3 (3 - Moderate effect). The ZEAMX rating (Zea mays (ZEAMX); dose 0.4 kg/ha) was 5 (5 - Definite injury), the GLXMA rating (Glycine max (GLXMA); dose 0.013 kg/ha) was 0 (0 - No effect) and the GLXMA rating (Glycine max (GLXMA); dose 0.025 kg/ha) was 2 (2 - Slight effect). For the same molecule, the GLXMA rating (Glycine max (GLXMA); dose 0.1 kg/ha) was 3 (3 - Moderate effect), the GLXMA rating (Glycine max (GLXMA); dose 0.4 kg/ha) was 5 (5 - Definite injury) and the SOLNI rating (Solanum nigrum (SOLNI) [6]; dose 0.1 kg/ha) was 2 (2 - Slight effect). For the same molecule, the SOLNI rating (Solanum nigrum (SOLNI) [6]; dose 0.25 kg/ha) was 1 (1 - Trace effect) and the SOLNI rating (Solanum nigrum (SOLNI) [6]; dose 0.4 kg/ha) was 4 (4 - Injury).

For `Cc1cc(OCC(F)(F)C(F)(F)C(F)(F)C(F)F)nc(Oc2cc(C(F)(F)F)nn2C)c1` [Example 8], the SOLNI rating (Solanum nigrum (SOLNI) [2]; dose 0.013 kg/ha) was 1 (1 - Trace effect), the SOLNI rating (Solanum nigrum (SOLNI) [2]; dose 0.025 kg/ha) was 3 (3 - Moderate effect) and the SOLNI rating (Solanum nigrum (SOLNI) [2]; dose 0.1 kg/ha) was 8 (8 - Approaching complete kill). For the same molecule, the SOLNI rating (Solanum nigrum (SOLNI) [2]; dose 0.4 kg/ha) was 8 (8 - Approaching complete kill), the LAMPU rating (Lamium purpureum (LAMPU); dose 0.03 kg/ha) was 8 (8 - Approaching complete kill) and the LAMPU rating (Lamium purpureum (LAMPU); dose 0.1 kg/ha) was 8 (8 - Approaching complete kill). The LAMPU rating (Lamium purpureum (LAMPU); dose 0.4 kg/ha) was 9 (9 - Complete kill), the CASOB rating ([3]; dose 0.03 kg/ha) was 2 (2 - Slight effect) and the CASOB rating ([3]; dose 0.1 kg/ha) was 7 (7 - Good herbicidal effect). The CASOB rating ([3]; dose 0.4 kg/ha) was 7 (7 - Good herbicidal effect), the broad-leaved weed control (weeds) was “effective” and the STEME rating (Stellaria media (STEME); dose 0.03 kg/ha) was 3 (3 - Moderate effect). The STEME rating (Stellaria media (STEME); dose 0.1 kg/ha) was 5 (5 - Definite injury), the STEME rating (Stellaria media (STEME); dose 0.4 kg/ha) was 8 (8 - Approaching complete kill) and the DIGSA rating ([4]; dose 0.03 kg/ha) was 8 (8 - Approaching complete kill). The DIGSA rating ([4]; dose 0.1 kg/ha) was 9 (9 - Complete kill), the DIGSA rating ([4]; dose 0.4 kg/ha) was 9 (9 - Complete kill) and the DIGSA rating ([5]; dose 0.013 kg/ha) was 1 (1 - Trace effect). For the same molecule, the DIGSA rating ([5]; dose 0.025 kg/ha) was 2 (2 - Slight effect), the DIGSA rating ([5]; dose 0.1 kg/ha) was 9 (9 - Complete kill) and the DIGSA rating ([5]; dose 0.4 kg/ha) was 9 (9 - Complete kill). The selectivity in maize (Zea mays (ZEAMX)) was “good selectivity”, the ZEAMX rating (Zea mays (ZEAMX); dose 0.013 kg/ha) was 1 (1 - Trace effect) and the ZEAMX rating (Zea mays (ZEAMX); dose 0.025 kg/ha) was 1 (1 - Trace effect). For the same molecule, the ZEAMX rating (Zea mays (ZEAMX); dose 0.1 kg/ha) was 1 (1 - Trace effect), the ZEAMX rating (Zea mays (ZEAMX); dose 0.4 kg/ha) was 2 (2 - Slight effect) and the GLXMA rating (Glycine max (GLXMA); dose 0.013 kg/ha) was 0 (0 - No effect). The GLXMA rating (Glycine max (GLXMA); dose 0.025 kg/ha) was 1 (1 - Trace effect), the GLXMA rating (Glycine max (GLXMA); dose 0.1 kg/ha) was 2 (2 - Slight effect) and the GLXMA rating (Glycine max (GLXMA); dose 0.4 kg/ha) was 4 (4 - Injury). The SOLNI rating (Solanum nigrum (SOLNI) [6]; dose 0.03 kg/ha) was 3 (3 - Moderate effect), the SOLNI rating (Solanum nigrum (SOLNI) [6]; dose 0.1 kg/ha) was 5 (5 - Definite injury) and the SOLNI rating (Solanum nigrum (SOLNI) [6]; dose 0.4 kg/ha) was 8 (8 - Approaching complete kill).
